Results: the kinase profiling compilation of Christmann-Franck et al. (2016)

How the values were obtained:
Assay in all cases: radiometric filter-binding kinase assay
[1] = target: AURKB (human) (UniProt Q96GD4)
[2] = target: BRSK1 (human) (UniProt Q8TDC3)
[3] = target: BTK (human) (UniProt Q06187)
[4] = target: CAMKK2 (human) (UniProt Q96RR4)
[5] = target: CSK (human) (UniProt P41240)
[6] = target: CSNK1D (human) (UniProt P48730)
[7] = target: CaMK1 (human) (UniProt Q14012)
[8] = target: DYRK1A (human) (UniProt Q13627)
[9] = target: DYRK2 (human) (UniProt Q92630)
[10] = target: EPHA4 (human) (UniProt P54764)
[11] = target: EPHB2 (human) (UniProt P29323)
[12] = target: EPHB3 (human) (UniProt P54753)
[13] = target: HIPK2 (human) (UniProt Q9H2X6)
[14] = target: IGF1R (human) (UniProt P08069)
[15] = target: IKBKB (human) (UniProt O14920)
[16] = target: IKBKE (human) (UniProt Q14164)
[17] = target: MAP2K2 (human) (UniProt P36507)
[18] = target: MAP3K11 (human) (UniProt Q16584)
[19] = target: MAP3K7 TAB1 (human) (UniProt Q15750+O43318)
[20] = target: MAPK12 (human) (UniProt P53778)
[21] = target: MAPK14 (human) (UniProt Q16539)
[22] = target: MAPK15 (human) (UniProt Q8TD08)
[23] = target: MAPK8 (human) (UniProt P45983)
[24] = target: MAPK9 (human) (UniProt P45984)
[25] = target: MAPKAPK2 (human) (UniProt P49137)
[26] = target: MAPKAPK5 (human) (UniProt Q8IW41)
[27] = target: MELK (human) (UniProt Q14680)
[28] = target: MINK1 (human) (UniProt Q8N4C8)
[29] = target: MKNK2 (human) (UniProt Q9HBH9)
[30] = target: PAK4 (human) (UniProt O96013)
[31] = target: PAK7 (human) (UniProt Q9P286)
[32] = target: PIM1 (human) (UniProt P11309)
[33] = target: PRKACA (human) (UniProt P17612)
[34] = target: RIPK2 (human) (UniProt O43353)
[35] = target: YES1 (human) (UniProt P07947)

Chain of MAP3K7 TAB1 (human) (O43318 whole entry, looked up): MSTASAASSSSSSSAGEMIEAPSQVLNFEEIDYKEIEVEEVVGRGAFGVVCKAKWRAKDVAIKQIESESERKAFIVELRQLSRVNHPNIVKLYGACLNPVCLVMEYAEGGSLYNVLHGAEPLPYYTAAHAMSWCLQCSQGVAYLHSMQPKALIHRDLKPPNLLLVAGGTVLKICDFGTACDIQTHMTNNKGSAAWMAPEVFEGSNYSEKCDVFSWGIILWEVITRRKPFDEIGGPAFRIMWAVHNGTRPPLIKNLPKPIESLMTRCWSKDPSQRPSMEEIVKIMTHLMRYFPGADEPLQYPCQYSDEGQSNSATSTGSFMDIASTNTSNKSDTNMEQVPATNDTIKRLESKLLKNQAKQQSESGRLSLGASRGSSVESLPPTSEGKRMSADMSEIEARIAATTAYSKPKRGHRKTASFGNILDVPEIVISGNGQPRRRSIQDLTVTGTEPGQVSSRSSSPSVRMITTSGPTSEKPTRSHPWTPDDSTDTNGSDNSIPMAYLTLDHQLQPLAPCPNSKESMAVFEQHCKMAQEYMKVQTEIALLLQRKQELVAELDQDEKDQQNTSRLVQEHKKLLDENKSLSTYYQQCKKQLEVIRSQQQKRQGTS
Chain of MAP3K7 TAB1 (human) (Q15750 whole entry, looked up): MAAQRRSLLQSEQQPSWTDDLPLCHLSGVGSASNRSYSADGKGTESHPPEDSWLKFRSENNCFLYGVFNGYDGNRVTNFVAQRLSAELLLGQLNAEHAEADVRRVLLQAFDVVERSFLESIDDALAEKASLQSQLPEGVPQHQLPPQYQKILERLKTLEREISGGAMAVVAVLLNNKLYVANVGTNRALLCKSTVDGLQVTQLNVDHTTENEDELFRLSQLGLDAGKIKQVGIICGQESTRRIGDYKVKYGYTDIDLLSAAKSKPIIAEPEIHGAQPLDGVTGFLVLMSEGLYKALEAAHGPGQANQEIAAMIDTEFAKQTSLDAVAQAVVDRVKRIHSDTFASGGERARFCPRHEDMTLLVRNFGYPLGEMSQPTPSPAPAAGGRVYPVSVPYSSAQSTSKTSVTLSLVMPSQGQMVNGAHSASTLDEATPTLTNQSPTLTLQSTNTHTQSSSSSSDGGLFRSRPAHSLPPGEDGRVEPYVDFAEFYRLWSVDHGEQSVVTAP
Chain of EPHA4 (human) (P54764 whole entry, looked up): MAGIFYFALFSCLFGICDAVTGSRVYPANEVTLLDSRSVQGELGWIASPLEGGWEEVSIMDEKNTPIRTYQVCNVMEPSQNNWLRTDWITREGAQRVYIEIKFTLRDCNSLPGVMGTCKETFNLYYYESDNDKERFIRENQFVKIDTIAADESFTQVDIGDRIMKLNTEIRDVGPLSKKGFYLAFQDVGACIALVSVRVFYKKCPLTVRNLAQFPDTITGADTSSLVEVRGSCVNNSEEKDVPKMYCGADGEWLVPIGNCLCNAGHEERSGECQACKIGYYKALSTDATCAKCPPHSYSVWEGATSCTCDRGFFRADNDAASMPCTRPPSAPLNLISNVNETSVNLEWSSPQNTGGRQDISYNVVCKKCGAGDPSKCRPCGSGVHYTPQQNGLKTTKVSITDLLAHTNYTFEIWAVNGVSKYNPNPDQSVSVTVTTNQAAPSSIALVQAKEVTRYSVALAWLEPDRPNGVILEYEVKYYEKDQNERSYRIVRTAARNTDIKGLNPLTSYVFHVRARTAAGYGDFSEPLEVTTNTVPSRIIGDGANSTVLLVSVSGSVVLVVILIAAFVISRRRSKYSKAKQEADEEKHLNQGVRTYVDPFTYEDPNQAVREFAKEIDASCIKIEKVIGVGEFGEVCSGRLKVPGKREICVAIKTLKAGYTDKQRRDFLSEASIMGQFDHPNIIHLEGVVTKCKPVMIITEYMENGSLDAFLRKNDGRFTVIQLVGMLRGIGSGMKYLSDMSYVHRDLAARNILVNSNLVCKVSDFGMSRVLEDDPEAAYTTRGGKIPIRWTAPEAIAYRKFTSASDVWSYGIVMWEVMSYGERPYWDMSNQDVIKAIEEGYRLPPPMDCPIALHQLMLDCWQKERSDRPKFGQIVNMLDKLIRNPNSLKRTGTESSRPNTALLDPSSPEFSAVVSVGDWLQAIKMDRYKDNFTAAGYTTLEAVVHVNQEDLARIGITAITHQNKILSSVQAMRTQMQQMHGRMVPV
Chain of PIM1 (human) (P11309 whole entry, looked up): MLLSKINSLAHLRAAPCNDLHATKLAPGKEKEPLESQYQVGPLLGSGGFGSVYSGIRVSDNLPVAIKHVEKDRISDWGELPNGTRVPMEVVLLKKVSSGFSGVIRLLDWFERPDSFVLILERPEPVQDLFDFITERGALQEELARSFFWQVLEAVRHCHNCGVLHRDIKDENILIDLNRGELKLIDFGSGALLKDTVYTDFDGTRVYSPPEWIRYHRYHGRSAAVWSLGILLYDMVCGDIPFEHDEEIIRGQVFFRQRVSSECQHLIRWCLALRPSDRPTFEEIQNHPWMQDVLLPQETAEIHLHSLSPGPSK
Chain of AURKB (human) (Q96GD4 whole entry, looked up): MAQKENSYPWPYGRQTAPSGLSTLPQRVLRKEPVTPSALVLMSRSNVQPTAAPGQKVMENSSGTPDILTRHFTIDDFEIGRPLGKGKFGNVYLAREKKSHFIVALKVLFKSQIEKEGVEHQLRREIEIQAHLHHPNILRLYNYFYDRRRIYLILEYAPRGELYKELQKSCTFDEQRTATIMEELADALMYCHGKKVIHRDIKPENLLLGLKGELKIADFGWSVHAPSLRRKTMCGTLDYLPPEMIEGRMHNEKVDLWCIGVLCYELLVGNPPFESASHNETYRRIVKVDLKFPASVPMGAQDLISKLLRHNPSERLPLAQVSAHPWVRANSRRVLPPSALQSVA
Chain of IKBKE (human) (Q14164 whole entry, looked up): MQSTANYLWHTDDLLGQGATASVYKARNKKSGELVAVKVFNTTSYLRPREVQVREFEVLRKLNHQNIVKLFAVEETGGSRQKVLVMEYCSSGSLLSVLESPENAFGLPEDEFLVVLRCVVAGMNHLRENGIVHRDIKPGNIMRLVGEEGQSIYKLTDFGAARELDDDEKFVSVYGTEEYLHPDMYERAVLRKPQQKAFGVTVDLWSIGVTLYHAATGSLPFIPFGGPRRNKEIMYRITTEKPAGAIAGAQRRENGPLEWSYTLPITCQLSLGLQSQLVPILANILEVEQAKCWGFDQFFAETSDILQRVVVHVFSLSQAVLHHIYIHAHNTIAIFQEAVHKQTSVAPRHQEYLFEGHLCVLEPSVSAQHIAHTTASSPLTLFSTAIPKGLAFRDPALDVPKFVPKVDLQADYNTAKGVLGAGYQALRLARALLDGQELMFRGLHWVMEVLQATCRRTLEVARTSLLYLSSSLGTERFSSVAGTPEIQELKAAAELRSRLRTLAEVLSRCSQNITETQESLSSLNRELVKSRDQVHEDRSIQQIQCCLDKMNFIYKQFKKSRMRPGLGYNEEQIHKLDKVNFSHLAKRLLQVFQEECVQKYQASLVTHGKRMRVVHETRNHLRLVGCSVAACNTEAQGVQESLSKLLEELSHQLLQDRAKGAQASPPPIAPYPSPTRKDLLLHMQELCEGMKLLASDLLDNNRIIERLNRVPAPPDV
Chain of MAP3K11 (human) (Q16584 whole entry, looked up): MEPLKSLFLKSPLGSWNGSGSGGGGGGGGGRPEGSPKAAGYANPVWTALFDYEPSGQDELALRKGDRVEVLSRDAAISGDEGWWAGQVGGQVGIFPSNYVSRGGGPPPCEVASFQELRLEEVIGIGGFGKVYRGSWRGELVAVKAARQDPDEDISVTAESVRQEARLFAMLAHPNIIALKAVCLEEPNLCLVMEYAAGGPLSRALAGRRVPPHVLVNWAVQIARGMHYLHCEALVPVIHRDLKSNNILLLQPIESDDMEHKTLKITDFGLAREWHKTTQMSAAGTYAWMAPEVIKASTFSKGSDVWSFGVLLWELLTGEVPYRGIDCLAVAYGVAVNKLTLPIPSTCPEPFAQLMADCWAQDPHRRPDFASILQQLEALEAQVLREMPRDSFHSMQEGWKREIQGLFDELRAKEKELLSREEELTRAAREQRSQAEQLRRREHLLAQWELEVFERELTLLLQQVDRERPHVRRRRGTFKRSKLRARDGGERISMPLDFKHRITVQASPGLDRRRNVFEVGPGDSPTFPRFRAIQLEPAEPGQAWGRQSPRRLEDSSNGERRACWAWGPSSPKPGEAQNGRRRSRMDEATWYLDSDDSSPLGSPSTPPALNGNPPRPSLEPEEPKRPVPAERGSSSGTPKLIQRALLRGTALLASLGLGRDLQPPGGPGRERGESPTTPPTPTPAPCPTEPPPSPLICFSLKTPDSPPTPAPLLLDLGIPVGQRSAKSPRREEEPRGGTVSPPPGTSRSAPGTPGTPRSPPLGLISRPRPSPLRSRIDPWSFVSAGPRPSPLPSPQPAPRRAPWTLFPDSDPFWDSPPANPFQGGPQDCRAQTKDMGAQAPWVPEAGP
Chain of RIPK2 (human) (O43353 whole entry, looked up): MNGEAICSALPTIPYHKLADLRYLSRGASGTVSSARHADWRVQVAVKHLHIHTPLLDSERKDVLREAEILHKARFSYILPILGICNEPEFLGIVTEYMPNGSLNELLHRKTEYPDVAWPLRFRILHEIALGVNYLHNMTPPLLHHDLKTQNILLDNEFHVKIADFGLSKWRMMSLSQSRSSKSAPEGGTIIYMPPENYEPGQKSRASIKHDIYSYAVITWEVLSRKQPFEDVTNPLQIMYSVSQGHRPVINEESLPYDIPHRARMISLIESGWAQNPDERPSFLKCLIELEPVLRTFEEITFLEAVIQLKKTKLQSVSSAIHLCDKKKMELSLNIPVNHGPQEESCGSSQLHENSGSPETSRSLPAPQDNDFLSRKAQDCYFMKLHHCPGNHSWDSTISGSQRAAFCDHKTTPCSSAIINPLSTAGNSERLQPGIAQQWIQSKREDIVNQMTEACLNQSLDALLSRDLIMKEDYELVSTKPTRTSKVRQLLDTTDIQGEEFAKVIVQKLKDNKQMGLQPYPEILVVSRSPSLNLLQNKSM

c1ccc2c(-c3cnn4cc(-c5ccc(N6CCNCC6)cc5)cnc34)ccnc2c1
residual activity ([1]; compound 0.1 µM): 95%
residual activity ([1]; compound 1.0 µM): 76%
residual activity ([1]; compound 10.0 µM): 47%
residual activity ([2]; compound 0.1 µM): 88%
residual activity ([2]; compound 1.0 µM): 85%
residual activity ([2]; compound 10.0 µM): 57%
residual activity ([3]; compound 0.1 µM): 111%
residual activity ([3]; compound 1.0 µM): 94%
residual activity ([3]; compound 10.0 µM): 52%
residual activity ([4]; compound 0.1 µM): 43%
residual activity ([4]; compound 1.0 µM): 13%
residual activity ([4]; compound 10.0 µM): 8%
residual activity ([5]; compound 0.1 µM): 95%
residual activity ([5]; compound 1.0 µM): 103%
residual activity ([5]; compound 10.0 µM): 72%
residual activity ([6]; compound 0.1 µM): 91%
residual activity ([6]; compound 1.0 µM): 69%
residual activity ([6]; compound 10.0 µM): 22%
residual activity ([7]; compound 0.1 µM): 86%
residual activity ([7]; compound 1.0 µM): 85%
residual activity ([7]; compound 10.0 µM): 45%
residual activity ([8]; compound 0.1 µM): 75%
residual activity ([8]; compound 1.0 µM): 40%
residual activity ([8]; compound 10.0 µM): 9%
residual activity ([9]; compound 0.1 µM): 108%
residual activity ([9]; compound 1.0 µM): 107%
residual activity ([9]; compound 10.0 µM): 77%
residual activity ([10]; compound 0.1 µM): 84%
residual activity ([10]; compound 1.0 µM): 83%
residual activity ([10]; compound 10.0 µM): 57%
residual activity ([11]; compound 0.1 µM): 108%
residual activity ([11]; compound 1.0 µM): 80%
residual activity ([11]; compound 10.0 µM): 37%
residual activity ([12]; compound 0.1 µM): 88%
residual activity ([12]; compound 1.0 µM): 75%
residual activity ([12]; compound 10.0 µM): 48%
residual activity ([13]; compound 0.1 µM): 93%
residual activity ([13]; compound 1.0 µM): 91%
residual activity ([13]; compound 10.0 µM): 56%
residual activity ([14]; compound 0.1 µM): 112%
residual activity ([14]; compound 1.0 µM): 99%
residual activity ([14]; compound 10.0 µM): 89%
residual activity ([15]; compound 1.0 µM): 98%
residual activity ([15]; compound 10.0 µM): 83%
residual activity ([16]; compound 0.1 µM): 87%
residual activity ([16]; compound 1.0 µM): 89%
residual activity ([16]; compound 10.0 µM): 56%
residual activity ([17]; compound 0.1 µM): 88%
residual activity ([17]; compound 1.0 µM): 91%
residual activity ([17]; compound 10.0 µM): 52%
residual activity ([18]; compound 0.1 µM): 86%
residual activity ([18]; compound 1.0 µM): 33%
residual activity ([18]; compound 10.0 µM): 8%
residual activity ([19]; compound 0.1 µM): 84%
residual activity ([19]; compound 1.0 µM): 44%
residual activity ([19]; compound 10.0 µM): 13%
residual activity ([20]; compound 0.1 µM): 78%
residual activity ([20]; compound 1.0 µM): 79%
residual activity ([21]; compound 0.1 µM): 78%
residual activity ([21]; compound 1.0 µM): 84%
residual activity ([21]; compound 10.0 µM): 75%
residual activity ([22]; compound 0.1 µM): 87%
residual activity ([22]; compound 1.0 µM): 49%
residual activity ([22]; compound 10.0 µM): 11%
residual activity ([23]; compound 0.1 µM): 89%
residual activity ([23]; compound 1.0 µM): 101%
residual activity ([23]; compound 10.0 µM): 78%
residual activity ([24]; compound 0.1 µM): 88%
residual activity ([24]; compound 1.0 µM): 103%
residual activity ([24]; compound 10.0 µM): 83%
residual activity ([25]; compound 0.1 µM): 81%
residual activity ([25]; compound 1.0 µM): 91%
residual activity ([25]; compound 10.0 µM): 73%
residual activity ([26]; compound 0.1 µM): 89%
residual activity ([26]; compound 1.0 µM): 100%
residual activity ([26]; compound 10.0 µM): 60%
residual activity ([27]; compound 0.1 µM): 81%
residual activity ([27]; compound 1.0 µM): 54%
residual activity ([27]; compound 10.0 µM): 18%
residual activity ([28]; compound 0.1 µM): 74%
residual activity ([28]; compound 1.0 µM): 15%
residual activity ([28]; compound 10.0 µM): 4%
residual activity ([29]; compound 0.1 µM): 90%
residual activity ([29]; compound 1.0 µM): 60%
residual activity ([29]; compound 10.0 µM): 34%
residual activity ([30]; compound 0.1 µM): 82%
residual activity ([30]; compound 1.0 µM): 94%
residual activity ([30]; compound 10.0 µM): 62%
residual activity ([31]; compound 0.1 µM): 95%
residual activity ([31]; compound 1.0 µM): 82%
residual activity ([31]; compound 10.0 µM): 72%
residual activity ([32]; compound 0.1 µM): 83%
residual activity ([32]; compound 1.0 µM): 83%
residual activity ([32]; compound 10.0 µM): 82%
residual activity ([33]; compound 0.1 µM): 99%
residual activity ([33]; compound 1.0 µM): 101%
residual activity ([33]; compound 10.0 µM): 94%
residual activity ([34]; compound 0.1 µM): 52%
residual activity ([34]; compound 1.0 µM): 2%
residual activity ([34]; compound 10.0 µM): 3%
residual activity ([35]; compound 0.1 µM): 73%
residual activity ([35]; compound 1.0 µM): 21%
residual activity ([35]; compound 10.0 µM): 7%

CNC(=O)C1[C@H]2O[C@@](C)([C@@H]1N)n1c3ccccc3c3c4c(c5c6ccccc6n2c5c31)C(=O)NC4 (stereo partly drawn)
residual activity ([1]; compound 0.01 µM): 49%
residual activity ([1]; compound 0.1 µM): 46%
residual activity ([1]; compound 1.0 µM): 39%
residual activity ([2]; compound 0.01 µM): 61%
residual activity ([2]; compound 0.1 µM): 3%
residual activity ([2]; compound 1.0 µM): 1%
residual activity ([3]; compound 0.01 µM): 49%
residual activity ([3]; compound 0.1 µM): 11%
residual activity ([3]; compound 1.0 µM): 9%
residual activity ([4]; compound 0.01 µM): 64%
residual activity ([4]; compound 0.1 µM): 14%
residual activity ([4]; compound 1.0 µM): 11%
residual activity ([5]; compound 0.01 µM): 112%
residual activity ([5]; compound 0.1 µM): 73%
residual activity ([5]; compound 1.0 µM): 20%
residual activity ([6]; compound 0.01 µM): 109%
residual activity ([6]; compound 0.1 µM): 107%
residual activity ([6]; compound 1.0 µM): 96%
residual activity ([7]; compound 0.01 µM): 97%
residual activity ([7]; compound 0.1 µM): 25%
residual activity ([7]; compound 1.0 µM): 4%
residual activity ([8]; compound 0.01 µM): 29%
residual activity ([8]; compound 0.1 µM): 8%
residual activity ([8]; compound 1.0 µM): 3%
residual activity ([9]; compound 0.01 µM): 41%
residual activity ([9]; compound 0.1 µM): 9%
residual activity ([9]; compound 1.0 µM): 4%
residual activity ([10]; compound 0.01 µM): 95%
residual activity ([10]; compound 0.1 µM): 61%
residual activity ([10]; compound 1.0 µM): 16%
residual activity ([11]; compound 0.01 µM): 108%
residual activity ([11]; compound 0.1 µM): 89%
residual activity ([11]; compound 1.0 µM): 34%
residual activity ([12]; compound 0.01 µM): 106%
residual activity ([12]; compound 0.1 µM): 100%
residual activity ([12]; compound 1.0 µM): 83%
residual activity ([13]; compound 0.01 µM): 85%
residual activity ([13]; compound 0.1 µM): 30%
residual activity ([13]; compound 1.0 µM): 6%
residual activity ([14]; compound 0.01 µM): 87%
residual activity ([14]; compound 0.1 µM): 64%
residual activity ([14]; compound 1.0 µM): 3%
residual activity ([15]; compound 0.01 µM): 75%
residual activity ([15]; compound 0.1 µM): 24%
residual activity ([15]; compound 1.0 µM): 6%
residual activity ([16]; compound 0.01 µM): 6%
residual activity ([16]; compound 0.1 µM): 1%
residual activity ([16]; compound 1.0 µM): 2%
residual activity ([17]; compound 0.01 µM): 32%
residual activity ([17]; compound 0.1 µM): 17%
residual activity ([17]; compound 1.0 µM): 14%
residual activity ([18]; compound 0.01 µM): 17%
residual activity ([18]; compound 0.1 µM): 5%
residual activity ([18]; compound 1.0 µM): 3%
residual activity ([19]; compound 0.01 µM): 111%
residual activity ([19]; compound 0.1 µM): 2%
residual activity ([19]; compound 1.0 µM): 2%
residual activity ([20]; compound 0.01 µM): 76%
residual activity ([20]; compound 0.1 µM): 29%
residual activity ([20]; compound 1.0 µM): 6%
residual activity ([21]; compound 0.01 µM): 106%
residual activity ([21]; compound 0.1 µM): 109%
residual activity ([21]; compound 1.0 µM): 105%
residual activity ([22]; compound 0.01 µM): 48%
residual activity ([22]; compound 0.1 µM): 8%
residual activity ([22]; compound 1.0 µM): 11%
residual activity ([23]; compound 0.01 µM): 91%
residual activity ([23]; compound 0.1 µM): 4%
residual activity ([23]; compound 1.0 µM): 1%
residual activity ([24]; compound 0.01 µM): 101%
residual activity ([24]; compound 0.1 µM): 98%
residual activity ([24]; compound 1.0 µM): 4%
residual activity ([25]; compound 0.01 µM): 19%
residual activity ([25]; compound 0.1 µM): 0%
residual activity ([25]; compound 1.0 µM): -1%
residual activity ([26]; compound 0.01 µM): 81%
residual activity ([26]; compound 0.1 µM): 15%
residual activity ([26]; compound 1.0 µM): 2%
residual activity ([27]; compound 0.01 µM): 18%
residual activity ([27]; compound 0.1 µM): 10%
residual activity ([27]; compound 1.0 µM): 5%
residual activity ([28]; compound 0.01 µM): 4%
residual activity ([28]; compound 0.1 µM): 3%
residual activity ([28]; compound 1.0 µM): 2%
residual activity ([29]; compound 0.01 µM): 93%
residual activity ([29]; compound 0.1 µM): 12%
residual activity ([29]; compound 1.0 µM): 10%
residual activity ([30]; compound 0.01 µM): 25%
residual activity ([30]; compound 0.1 µM): 7%
residual activity ([30]; compound 1.0 µM): 7%
residual activity ([31]; compound 0.01 µM): 17%
residual activity ([31]; compound 0.1 µM): 4%
residual activity ([31]; compound 1.0 µM): 2%
residual activity ([32]; compound 0.01 µM): 71%
residual activity ([32]; compound 0.1 µM): 16%
residual activity ([32]; compound 1.0 µM): 1%
residual activity ([33]; compound 0.01 µM): 29%
residual activity ([33]; compound 0.1 µM): 5%
residual activity ([33]; compound 1.0 µM): 2%
residual activity ([34]; compound 0.01 µM): 80%
residual activity ([34]; compound 0.1 µM): 26%
residual activity ([34]; compound 1.0 µM): 9%
residual activity ([35]; compound 0.01 µM): 76%
residual activity ([35]; compound 0.1 µM): 20%
residual activity ([35]; compound 1.0 µM): 2%
